What was measured:
[1] = tested on: MDA-MB-231 human breast cancer cells; experiment: Disruption of human breast cancer cell adhesion (phase contrast microscopy); format: cell-based; conditions: 100 μl of 10 mg/ml peptide stock added to 1 ml DMEM containing 5% serum; for cell morphology and attachment to the substratum: after 24 hours, cells express cadherin-11 (OB-cadherin) but not N-cadherin or E-cadherin
Procedure: MDA-MB-231 human breast cancer cells (Lombardi Cancer Research Center, Washington, D.C.) were used in these experiments. They express cadherin-11 (also known as OB-cadherin) but not N-cadherin or E-cadherin. The cells were plated (˜50.000 cells) on glass coverslips and cultured for 24 hours in DMEM containing 5% serum. Peptides (N-Ac-IFVIDDKSG-NH2 (SEQ ID NO:85) and H-IFVIDDKSG-OH (SEQ ID NO:85)) were dissolved in sterile water (10 mg/ml), and 100 μl of each peptide stock solution was added to 1 ml of DMEM containing 5% serum. Control cells had 100 μl of water added to the medium. Cells were monitored by phase contrast microscopy. After 24 hours cells were fixed in formaldehyde. […] The amino acid sequence of this peptide is identical to that which is found in the first extracellular domain of OB-cadherin.

[2] = tested on: Human umbilical vein endothelial cells; experiment: Disruption of endothelial cell adhesion (VE-cadherin immunolabeling); format: cell-based
Procedure: Human umbilical vein endothelial cells were cultured using standard procedures (see Ichikawa et al., Amer. J. Physiol. 273 (Gastrointest. Liver Physiol. 36): […], 1997). Cells were maintained in EGM (Clonetics, San Diego, Calif.) and used at P2 for all experiments. Endothelial identity was established by Dil-LDL and factor VIII staining.
The cells were cultured on glass coverslips. Monolayers were exposed to peptides at a concentration of 75 μg/mL for 60 minutes. The cells were then fixed with 95% ethanol for 30 minutes at 4° C., followed by acetone for one minute and left to air dry at room temperature. Primary antibody for VE-cadherin (Immunotech, MarseiIles, France; 1:250) was added for one hour at 37° C. Coverslips were then washed with 0.1% milk/PBS solution three times for five minutes each. Secondary antibody (1:250), goat anti-rabbit FITC (Zymed, San Francisco, Calif.) was incubated at 37° C. for one hour. Coverslips were again washed with 0.1% milk/PBS solution three times for five minutes each. Coverslips were mounted with anti-quenching solution (1 mg/mL phenylenediamine (Sigma, St. Louis, Mo.) in 50% glycerol, 50% PBS). All photographs were taken at 400× and 1000× with exposure times of 12 seconds.

H-IFVIDDKSG-OH
cell morphology and attachment to the substratum [1]: remained flattened and well-attached to the substratum

N-Ac-IFVIDDKSG-NH2
effect on cell adhesion ([1]; 24 hours): interferes with cell adhesion | cell morphology and attachment to the substratum [1]: rounded up from each other and were not well-attached to the substratum

N-Ac-VFRVDAETGD-NH2
activity relative to similar peptide without the N- and C-terminal functional groups ([2]; 75 μg/mL for 60 minutes, comparison with H-VFRVDAETGD-OH): substantially greater | effect on endothelial cell adhesion ([2]; 75 μg/mL peptide for 60 minutes, monolayers on glass coverslips, VE-cadherin immunolabel, 400× and 1000×): disrupts endothelial cell adhesion

— patent US6569996B1, “Antibody that specifically binds to the cadherin-5 cell adhesion recognition sequence” (Adherex Technologies, Inc., priority 1998, dated 2003)
